According to the NIST ThermoML archive (doi:10.1021/je020053r):
Numbers after ± are expanded uncertainties.

Legend:
[1] = 293.15 K; 101.33 kPa; Liquid
[2] = refractive index (Na D-line) (dimensionless); settings: 293.15 K; 101.33 kPa; Liquid; Standard Abbe refractometry

Row | SMILES | mass density [1] [kg/m3] | refractive index [2]
1 | O=Cc1ccco1 [2-furaldehyde] | 1128.5 ± 15 | –
2 | CCCCCC [hexane] | 659.3 ± 5 | –
3 | O [water] | – | 1.333 ± 0.0007
